Data as given in patent publication US12441726B2, “Compounds and uses thereof” (Foghorn Therapeutics Inc., priority 2020, dated 2025).

Experiments:
[1] = target: BRG-1 (Homo sapiens, UniProt P51532); assay: ATPase catalytic activity assay (ADP-Glo), BRG-1; conditions: for Emax: 1 h, read-out: BRG1 Max % Inhibition, ADP-Glo, 30 nM BRG-1, 400 μM ATP
Protocol: The ATPase catalytic activity of BRM or BRG-1 was measured by an in vitro biochemical assay using ADP-Glo™ (Promega, V9102). The ADP-Glo™ kinase assay is performed in two steps once the reaction is complete. The first step is to deplete any unconsumed ATP in the reaction. The second step is to convert the reaction product ADP to ATP, which will be utilized by the luciferase to generate luminesce and be detected by a luminescence reader, such as Envision.
Then following addition of 5 μL of ADP-Glo™ Reagent provided in the kit, the reaction incubates at room temperature for 40 minutes. Then 10 μL of Kinase Detection Reagent provided in the kit is added to convert ADP to ATP, and the reaction incubates at room temperature for 60 minutes. Finally, luminescence measurement is collected with a plate-reading luminometer, such as Envision.

[2] = target: BRM (Homo sapiens, UniProt P51531); assay: ATPase catalytic activity assay (ADP-Glo), BRM; conditions: 30 nM BRM, 400 μM ATP; for IC50: BRM ATPase: IC50 (uM)
Sequence of BRM (P51531 whole entry): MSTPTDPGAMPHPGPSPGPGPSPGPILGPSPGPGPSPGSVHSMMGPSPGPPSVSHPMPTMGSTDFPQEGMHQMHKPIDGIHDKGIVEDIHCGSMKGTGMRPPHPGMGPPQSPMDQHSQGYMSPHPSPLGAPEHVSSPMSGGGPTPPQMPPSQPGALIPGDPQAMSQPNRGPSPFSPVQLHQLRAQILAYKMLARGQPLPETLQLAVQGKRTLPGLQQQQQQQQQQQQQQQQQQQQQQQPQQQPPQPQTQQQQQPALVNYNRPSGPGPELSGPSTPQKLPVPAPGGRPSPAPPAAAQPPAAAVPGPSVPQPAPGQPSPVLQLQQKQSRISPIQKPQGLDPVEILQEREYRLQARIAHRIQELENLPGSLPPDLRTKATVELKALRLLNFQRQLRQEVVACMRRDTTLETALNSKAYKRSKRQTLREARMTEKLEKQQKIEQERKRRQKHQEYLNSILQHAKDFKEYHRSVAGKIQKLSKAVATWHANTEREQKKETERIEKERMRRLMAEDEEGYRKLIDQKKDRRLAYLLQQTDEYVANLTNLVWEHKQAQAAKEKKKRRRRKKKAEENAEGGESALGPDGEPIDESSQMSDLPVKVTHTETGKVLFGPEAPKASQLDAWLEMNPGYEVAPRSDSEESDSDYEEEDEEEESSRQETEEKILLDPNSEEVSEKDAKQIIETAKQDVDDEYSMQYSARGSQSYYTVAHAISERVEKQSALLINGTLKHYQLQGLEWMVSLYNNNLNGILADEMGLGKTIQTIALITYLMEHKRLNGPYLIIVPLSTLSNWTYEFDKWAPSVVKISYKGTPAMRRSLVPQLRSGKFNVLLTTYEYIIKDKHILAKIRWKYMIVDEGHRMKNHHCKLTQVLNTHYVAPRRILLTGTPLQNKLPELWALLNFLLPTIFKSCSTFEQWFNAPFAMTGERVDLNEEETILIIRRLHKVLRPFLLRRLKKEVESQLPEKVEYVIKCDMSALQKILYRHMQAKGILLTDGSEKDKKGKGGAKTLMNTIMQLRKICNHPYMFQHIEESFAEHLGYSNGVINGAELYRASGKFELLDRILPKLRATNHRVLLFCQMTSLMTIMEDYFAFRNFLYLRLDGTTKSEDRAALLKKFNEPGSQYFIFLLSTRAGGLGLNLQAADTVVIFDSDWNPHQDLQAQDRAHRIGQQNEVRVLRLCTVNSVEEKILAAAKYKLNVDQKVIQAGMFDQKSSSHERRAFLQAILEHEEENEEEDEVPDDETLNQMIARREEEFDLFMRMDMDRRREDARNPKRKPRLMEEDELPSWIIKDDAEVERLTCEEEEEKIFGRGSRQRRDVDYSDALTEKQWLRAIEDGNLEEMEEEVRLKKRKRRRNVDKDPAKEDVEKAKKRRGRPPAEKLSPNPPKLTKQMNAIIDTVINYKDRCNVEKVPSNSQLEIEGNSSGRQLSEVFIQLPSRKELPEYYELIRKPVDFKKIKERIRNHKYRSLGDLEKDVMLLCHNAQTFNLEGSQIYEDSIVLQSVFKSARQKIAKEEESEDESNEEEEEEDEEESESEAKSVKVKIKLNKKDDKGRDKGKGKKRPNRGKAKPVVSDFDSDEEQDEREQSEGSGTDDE

Sequence of BRG-1 (P51532 whole entry): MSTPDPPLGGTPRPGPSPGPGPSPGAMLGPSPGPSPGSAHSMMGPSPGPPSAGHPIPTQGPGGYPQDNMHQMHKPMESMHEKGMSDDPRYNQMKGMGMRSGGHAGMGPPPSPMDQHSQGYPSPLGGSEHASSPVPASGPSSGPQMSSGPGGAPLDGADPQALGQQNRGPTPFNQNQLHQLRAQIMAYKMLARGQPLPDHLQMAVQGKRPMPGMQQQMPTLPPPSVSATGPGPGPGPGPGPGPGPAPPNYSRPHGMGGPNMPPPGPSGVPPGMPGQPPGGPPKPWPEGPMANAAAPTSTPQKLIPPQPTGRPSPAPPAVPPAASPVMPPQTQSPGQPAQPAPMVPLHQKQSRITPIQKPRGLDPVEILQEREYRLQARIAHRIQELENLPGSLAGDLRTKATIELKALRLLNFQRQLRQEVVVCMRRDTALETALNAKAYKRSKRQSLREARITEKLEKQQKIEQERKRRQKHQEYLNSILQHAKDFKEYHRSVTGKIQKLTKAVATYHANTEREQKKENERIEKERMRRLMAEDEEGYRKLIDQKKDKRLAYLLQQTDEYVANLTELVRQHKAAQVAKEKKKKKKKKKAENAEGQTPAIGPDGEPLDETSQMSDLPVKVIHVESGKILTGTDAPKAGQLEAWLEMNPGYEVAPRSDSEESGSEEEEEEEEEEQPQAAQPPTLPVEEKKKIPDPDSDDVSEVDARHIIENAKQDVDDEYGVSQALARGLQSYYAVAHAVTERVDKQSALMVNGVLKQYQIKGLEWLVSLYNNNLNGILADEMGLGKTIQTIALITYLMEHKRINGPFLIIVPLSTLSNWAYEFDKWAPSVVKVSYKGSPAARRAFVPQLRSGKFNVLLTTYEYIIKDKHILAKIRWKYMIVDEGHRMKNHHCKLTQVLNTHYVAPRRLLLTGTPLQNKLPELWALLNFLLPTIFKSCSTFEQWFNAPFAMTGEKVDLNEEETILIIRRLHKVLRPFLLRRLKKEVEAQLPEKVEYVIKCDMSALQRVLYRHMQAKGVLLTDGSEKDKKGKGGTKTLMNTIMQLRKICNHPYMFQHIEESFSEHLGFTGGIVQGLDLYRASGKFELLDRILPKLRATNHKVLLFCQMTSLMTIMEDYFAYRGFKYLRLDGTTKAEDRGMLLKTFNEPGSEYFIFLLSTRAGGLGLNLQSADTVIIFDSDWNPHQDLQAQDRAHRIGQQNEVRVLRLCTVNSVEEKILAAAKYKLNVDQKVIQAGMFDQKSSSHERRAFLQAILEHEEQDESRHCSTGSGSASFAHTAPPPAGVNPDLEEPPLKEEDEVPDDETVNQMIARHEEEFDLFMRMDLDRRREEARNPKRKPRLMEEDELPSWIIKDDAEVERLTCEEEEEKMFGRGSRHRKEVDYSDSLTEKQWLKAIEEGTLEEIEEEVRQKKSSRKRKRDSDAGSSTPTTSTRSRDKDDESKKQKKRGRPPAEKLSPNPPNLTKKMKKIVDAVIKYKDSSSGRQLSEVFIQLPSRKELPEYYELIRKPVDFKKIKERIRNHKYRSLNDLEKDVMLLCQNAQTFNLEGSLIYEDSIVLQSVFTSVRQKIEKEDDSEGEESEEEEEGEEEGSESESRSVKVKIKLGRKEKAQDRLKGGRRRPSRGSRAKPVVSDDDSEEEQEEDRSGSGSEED

Row | SMILES | IC50 [1] [nM] | Emax [1] [%] | BRM Max % Inhibition [2] [%] | IC50 [2] [µM]
1 | C[C@@]1(C#N)COCc2ccc(C(=O)NCc3cc4nc(-c5cccc(C#N)c5)ccc4cn3)cc21 [Compound 112] | > 1000 | 55 | 94 | 0.1 to 0.5
2 | Cn1ccc(-c2ccc3cnc(CNC(=O)c4ccc5c(c4)[C@](C)(C#N)COC5)cc3n2)n1 [Compound 113] | > 1000 | 32 | 79 | > 1
3 | C[C@@]1(C#N)COCc2ccc(C(=O)NCc3cc4nc(-c5cccnc5)ccc4cn3)cc21 [Compound 114] | > 1000 | 42 | 86 | 0.5 to 1
4 | C[C@@]1(CO)COCc2ccc(C(=O)NCc3cc4nc(-c5ccccc5)sc4cn3)cc21 [Compound 115] | > 1000 | 19 | 84 | > 1
5 | C[C@@]1(C#N)CCNc2ccc(C(=O)NCc3cc4nc(-c5ccccc5)ccc4cn3)cc21 [Compound 116] | > 1000 | 22 | 76 | > 1
6 | C[C@@]1(C#N)COc2ccc(C(=O)NCc3cc4nc(-c5ccccc5)sc4cn3)cc21 [Compound 117] | > 1000 | 27 | 74 | > 1
7 | C[C@@]1(C#N)CCOc2ccc(C(=O)NCc3cc4nc(-c5ccccc5)sc4cn3)cc21 [Compound 118] | > 1000 | 40 | 89 | > 1
8 | C[C@@]1(O)COCc2ccc(C(=O)NCc3cc4nc(-c5ccccc5)sc4cn3)cc21 [Compound 119] | > 1000 | 18 | 81 | > 1
9 | C[C@@]1(C#N)CCNc2ccc(C(=O)NCc3cc4nc(-c5ccccc5)sc4cn3)cc21 [Compound 120] | > 1000 | 0 | 8 | > 1
10 | COC(=O)N1CCCC(c2ccc3cnc(CNC(=O)c4ccc5c(c4)[C@](C)(C#N)COC5)cc3n2)C1 (stereo partly shown) [Compound 121] | > 1000 | 44 | 81 | > 1
11 | C[C@@]1(C#N)COCc2ncc(C(=O)NCc3cc4nc(-c5ccccc5)ccc4cn3)cc21 [Compound 122] | > 1000 | 62 | 94 | 0.1 to 0.5
12 | C[C@@]1(C#N)COCc2ccc(C(=O)NCc3cc4cc(-c5ccccc5)ccc4cn3)cc21 [Compound 123] | > 1000 | 74 | 96 | 0.1 to 0.5
13 | C[C@@]1(C#N)COCc2ccc(C(=O)NCc3cc4nc(-c5ccccc5)sc4cn3)cc21 [Compound 124] | > 1000 | 98 | 97 | < 0.1
14 | C[C@@]1(C#N)COCc2ccc(C(=O)NCc3cc4nc(-c5ccc(N6CCC6)cc5)ccc4cn3)cc21 [Compound 125] | 500 to 1000 | 86 | 98 | 0.1 to 0.5
15 | C[C@@]1(C#N)COCc2ccc(C(=O)NCc3cc4nc(-c5cccc(N6CCC6)c5)ccc4cn3)cc21 [Compound 126] | > 1000 | 51 | 95 | 0.1 to 0.5
16 | COc1cc(C2CCC2)ccc1-c1ccc2cnc(CNC(=O)c3ccc4c(c3)[C@](C)(C#N)COC4)cc2n1 [Compound 127] | 500 to 1000 | 74 | 96 | < 0.1
17 | COCCN1CCC(c2cccc(-c3ccc4cnc(CNC(=O)c5ccc6c(c5)[C@](C)(C#N)COC6)cc4n3)n2)CC1 [Compound 128] | > 1000 | 39 | 82 | 0.1 to 0.5
18 | Cc1cc2c(-c3ccc4cnc(CNC(=O)c5ccc6c(c5)[C@](C)(C#N)COC6)cc4n3)ccc(F)c2n1C [Compound 129] | < 100 | 98 | 100 | < 0.1
19 | C[C@@]1(C#N)COCc2ccc(C(=O)NCc3ncc4ccc(-c5cncc(C6CC6)n5)nc4c3F)cc21 [Compound 130] | 100 to 500 | 90 | 97 | < 0.1
20 | CN1CCC(c2cccc(-c3ccc4cnc(CNC(=O)c5ccc6c(c5)[C@](C)(C#N)COC6)cc4n3)n2)CC1 [Compound 131] | > 1000 | 25 | 83 | 0.1 to 0.5
21 | COCCN1CCN(c2cccc(-c3ccc4cnc(CNC(=O)c5ccc6c(c5)[C@](C)(C#N)COC6)cc4n3)n2)CC1 [Compound 132] | 500 to 1000 | 71 | 97 | 0.1 to 0.5
22 | COCCn1c(C)cc2c(-c3ccc4cnc(CNC(=O)c5ccc6c(c5)[C@](C)(C#N)COC6)cc4n3)cccc21 [Compound 133] | < 100 | 98 | 102 | < 0.1

Row | SMILES | IC50 [1] [nM] | Emax [1] [%] | BRM Max % Inhibition [2] [%] | IC50 [2] [µM]
23 | CCc1cc2c(-c3ccc4cnc(CNC(=O)c5ccc6c(c5)[C@](C)(C#N)COC6)cc4n3)cccc2n1C [Compound 134] | < 100 | 97 | 101 | < 0.1
24 | Cn1c(C2CC2)cc2c(-c3ccc4cnc(CNC(=O)c5ccc6c(c5)[C@](C)(C#N)COC6)cc4n3)cccc21 [Compound 135] | < 100 | 98 | 103 | < 0.1
25 | C[C@@]1(C#N)COCc2ccc(C(=O)NCc3cc4nc(-c5cn(C6COC6)nc5CC(F)F)ccc4cn3)cc21 [Compound 136] | > 1000 | 25 | 83 | 0.1 to 0.5
26 | CC1(c2nccc(-c3ccc4cnc(CNC(=O)c5ccc6c(c5)[C@](C)(C#N)COC6)cc4n3)n2)COC1 [Compound 137] | > 1000 | 39 | 88 | 0.1 to 0.5
27 | Cn1cc(F)c2c(-c3ccc4cnc(CNC(=O)c5ccc6c(c5)[C@](C)(C#N)COC6)cc4n3)cccc21 [Compound 138] | 100 to 500 | 94 | 101 | < 0.1
28 | Cn1c(C(F)F)cc2c(-c3ccc4cnc(CNC(=O)c5ccc6c(c5)[C@](C)(C#N)COC6)cc4n3)cccc21 [Compound 139] | 100 to 500 | 94 | 100 | < 0.1
29 | COc1nn(C2CC2(F)F)cc1-c1ccc2cnc(CNC(=O)c3ccc4c(c3)[C@](C)(C#N)COC4)cc2n1 (stereo partly shown) [Compound 140] | 500 to 1000 | 48 | 94 | 0.1 to 0.5
30 | COCc1cc2c(-c3ccc4cnc(CNC(=O)c5ccc6c(c5)[C@](C)(C#N)COC6)cc4n3)cccc2n1C [Compound 141] | 100 to 500 | 96 | 100 | < 0.1
31 | C[C@@]1(C#N)COCc2ccc(C(=O)NCc3cc4cc(-n5cc(F)c(N6CCC6)n5)ccc4nn3)cc21 [Compound 142] | 100 to 500 | 88 | 98 | < 0.1
32 | C[C@@]1(F)COCc2ccc(C(=O)NCc3cc4nc(-c5cccc(N6CCCC6=O)n5)cnc4cn3)cc21 [Compound 143] | 100 to 500 | 89 | 103 | < 0.1
33 | COc1cc(C)ccc1-c1ccc2cnc(CNC(=O)c3ccc4c(c3)[C@](C)(C#N)COC4)cc2n1 [Compound 144] | 100 to 500 | 95 | 102 | < 0.1
34 | C[C@@]1(C#N)COCc2ccc(C(=O)NCc3cc4nc(-c5cn(C6COC6)nc5C(F)F)ccc4cn3)cc21 [Compound 145] | 500 to 1000 | 65 | 94 | 0.1 to 0.5
35 | COc1cc(N2CCC2)ccc1-c1ccc2cnc(CNC(=O)c3ccc4c(c3)[C@](C)(C#N)COC4)cc2n1 [Compound 146] | 100 to 500 | 80 | 98 | 0.1 to 0.5
36 | C[C@@]1(C#N)COCc2ccc(C(=O)NCc3cc4nc(-c5cccc6c5ccn6CC(F)F)ccc4cn3)cc21 [Compound 147] | 100 to 500 | 90 | 101 | < 0.1
37 | COc1cc(C(C)(C)C)ccc1-c1ccc2cnc(CNC(=O)c3ccc4c(c3)[C@](C)(C#N)COC4)cc2n1 [Compound 148] | > 1000 | 32 | 90 | 0.1 to 0.5
38 | CN1CCCc2c(-c3ccc4cnc(CNC(=O)c5ccc6c(c5)[C@](C)(C#N)COC6)cc4n3)cccc21 [Compound 149] | 500 to 1000 | 67 | 95 | 0.1 to 0.5
39 | Cn1cc2c(-c3ccc4cnc(CNC(=O)c5ccc6c(c5)[C@](C)(C#N)COC6)cc4n3)cccc2n1 [Compound 151] | 500 to 1000 | 56 | 93 | 0.1 to 0.5
40 | COc1ccc(C)cc1-c1ccc2cnc(CNC(=O)c3ccc4c(c3)[C@](C)(C#N)COC4)cc2n1 [Compound 153] | > 1000 | 37 | 87 | 0.1 to 0.5
41 | C[C@@]1(C#N)COCc2ccc(C(=O)NCc3cc4nc(-c5cn(C6COC6)nc5OC(F)F)ccc4cn3)cc21 [Compound 154] | 100 to 500 | 95 | 101 | < 0.1
42 | COc1cc(N2CCOCC2)ccc1-c1ccc2cnc(CNC(=O)c3ccc4c(c3)[C@](C)(C#N)COC4)cc2n1 [Compound 155] | 500 to 1000 | 67 | 96 | 0.1 to 0.5
43 | COc1cc(Cl)ccc1-c1ccc2cnc(CNC(=O)c3ccc4c(c3)[C@](C)(C#N)COC4)cc2n1 [Compound 156] | 100 to 500 | 97 | 99 | < 0.1
